Assay results: US9617244B2, “Antibacterial quinoline derivatives” (JANSSEN PHARMACEUTICA NV, priority 2012, dated 2017)
Values after ≈ are worked out from the molar mass of the structure shown.

Columns and labels:
[1] = tested on: Staphylococcus aureus (ATCC29213); assay: In-vitro anti-bacterial activity, microtitre plate assay, IC90 determination (non-mycobacterial strains); format: cell-based; details: 90% inhibitory concentration for bacterial growth, resazurin fluorescence; for IC90: Staphylococcus aureus, ATCC29213, 24 h, read-out: IC90 STA B29213; for IC90 STA B29213: 24 hours
Outline: (§1)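 Growth inhibition measured fluorometrically with resazurin (530/590 nm) after overnight 37 °C incubation under normal atmosphere. Bacteria added at roughly 100 TCID50 per well in Mueller-Hinton broth to five-fold compound dilution series; IC90 reported in μg/ml.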

[2] = tested on: Streptococcus pneumoniae (ATCC6305); assay: as above; format: cell-based; details: Streptococcus pneumoniae, ATCC6305, 24 h, 90% inhibitory concentration for bacterial growth, resazurin fluorescence, read-out: IC90 SPN 6305
Outline: as §1

[3] = tested on: Mycobacterium smegmatis (ATCC607); assay: In-vitro anti-bacterial activity against strain M. Smegmatis ATCC607; format: cell-based; details: 90% inhibitory concentration for bacterial growth, Alamar Blue fluorescence; for IC90: Mycolicibacterium smegmatis, ATCC607, 48 h, read-out: IC90 MSM 607; for IC90 MSM 607: 48 hours
Outline: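 IC90 (μg/ml) derived from Alamar Blue fluorescence (530/590 nm) after 48 h growth at 37 °C under 5% CO2. About 250 CFU per well in Mueller-Hinton broth faced five-fold serial compound dilutions in BSA-containing wells.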

Row | SMILES | IC90 [1] | IC90 [2] | IC90 [3] | IC90 STA B29213 [1] | IC90 MSM 607 [3] | melting point
1 | COc1nc2ccc(Br)cc2cc1C(c1cccc(Cl)c1)C1(O)CCNC(Cc2ccccc2)C1 (stereo not drawn) [Compound 35] | 2.76 µg/mL (≈ 5 µM) | 4.37 µg/mL (≈ 7.92 µM) | 2.19 µg/mL (≈ 3.97 µM) | – | – | –
2 | O=c1[nH]c2ccc(Br)cc2cc1C(c1ccc(Cl)cc1)C1(O)CCNC(Cc2ccc(F)c(F)c2)C1 (stereo not drawn) [Compound 40] | 3.42 µg/mL (≈ 5.96 µM) | 6.83 µg/mL (≈ 11.9 µM) | 1.93 µg/mL (≈ 3.36 µM) | – | – | –
3 | COc1nc2ccc(Cl)cc2cc1C(c1ccc(Cl)cc1)C1(O)CCNCC1F (stereo not drawn) [Compound 452] | – | – | – | 9.75 µg/mL (≈ 22.4 µM) | 4.35 µg/mL (≈ 9.99 µM) | 114 °C
4 | COc1nc2ccc(Cl)cc2cc1C(c1ccc(Cl)cc1)C1(O)CCNCC1F (stereo not drawn) [Compound 453] | 5.48 µg/mL (≈ 12.6 µM) | – | – | – | 2.75 µg/mL (≈ 6.32 µM) | 210 °C
5 | COc1nc2ccc(Cl)cc2cc1C(c1ccc(Cl)cc1)C1(O)CCNCC1F (stereo not drawn) [Compound 454] | – | – | – | 10.94 µg/mL (≈ 25.1 µM) | 4.35 µg/mL (≈ 9.99 µM) | 186 °C
6 | COc1nc2ccc(Cl)cc2cc1C(c1ccc(Cl)cc1)C1(O)CCNCC1F (stereo not drawn) [Compound 455] | – | – | – | 7.74 µg/mL (≈ 17.8 µM) | 5.48 µg/mL (≈ 12.6 µM) | 118 °C
7 | COc1nc2ccc(Cl)cc2cc1C(c1ccc(Cl)cc1)C1(O)CCNCC1F (stereo not drawn) [Compound 456] | – | – | – | 10.94 µg/mL (≈ 25.1 µM) | 10.94 µg/mL (≈ 25.1 µM) | 115 °C

Results, then the compound that gave them:

Row | IC90 [1] | IC90 [2] | IC90 [3] | IC90 STA B29213 [1] | IC90 MSM 607 [3] | melting point | SMILES
8 | – | – | – | 13.14 µg/mL (≈ 22.4 µM) | 3.70 µg/mL (≈ 6.3 µM) | 211 °C | COc1nc2ccc(S(C)(=O)=O)cc2cc1C(c1ccc(Cl)cc1)C1(O)CCNC(c2ccc3ccccc3c2)C1 (stereo not drawn) [Compound 459]
9 | – | – | – | 3.70 µg/mL (≈ 6.3 µM) | 1.86 µg/mL (≈ 3.17 µM) | 197 °C | COc1nc2ccc(S(C)(=O)=O)cc2cc1C(c1ccc(Cl)cc1)C1(O)CCNC(c2ccc3ccccc3c2)C1 (stereo not drawn) [Compound 460]
10 | – | – | – | 2.62 µg/mL (≈ 4.46 µM) | 1.47 µg/mL (≈ 2.5 µM) | 208 °C | COc1nc2ccc(S(C)(=O)=O)cc2cc1C(c1ccc(Cl)cc1)C1(O)CCNC(c2ccc3ccccc3c2)C1 (stereo not drawn) [Compound 461]
11 | – | – | – | 1.86 µg/mL (≈ 3.17 µM) | 0.93 µg/mL (≈ 1.58 µM) | 192 °C | COc1nc2ccc(S(C)(=O)=O)cc2cc1C(c1ccc(Cl)cc1)C1(O)CCNC(c2ccc3ccccc3c2)C1 (stereo not drawn) [Compound 462]
12 | – | – | – | 14.75 µg/mL (≈ 25.1 µM) | 2.34 µg/mL (≈ 3.99 µM) | 160 °C | COc1nc2ccc(S(C)(=O)=O)cc2cc1C(c1ccc(Cl)cc1)C1(O)CCNC(c2ccc3ccccc3c2)C1 (stereo not drawn) [Compound 463]
13 | – | – | – | 1.47 µg/mL (≈ 2.5 µM) | 1.17 µg/mL (≈ 1.99 µM) | 154 °C | COc1nc2ccc(S(C)(=O)=O)cc2cc1C(c1ccc(Cl)cc1)C1(O)CCNC(c2ccc3ccccc3c2)C1 (stereo not drawn) [Compound 464]
14 | – | – | – | 5.87 µg/mL (≈ 10 µM) | 2.62 µg/mL (≈ 4.46 µM) | 168 °C | COc1nc2ccc(S(C)(=O)=O)cc2cc1C(c1ccc(Cl)cc1)C1(O)CCNC(c2ccc3ccccc3c2)C1 (stereo not drawn) [Compound 465]
15 | – | – | – | 3.70 µg/mL (≈ 6.3 µM) | 1.47 µg/mL (≈ 2.5 µM) | 188 °C | COc1nc2ccc(S(C)(=O)=O)cc2cc1C(c1ccc(Cl)cc1)C1(O)CCNC(c2ccc3ccccc3c2)C1 (stereo not drawn) [Compound 466]
16 | 3.21 µg/mL (≈ 6.31 µM) | – | 2.55 µg/mL (≈ 5.02 µM) | – | – | 148 °C | COc1nc2ccc(Cl)cc2cc1C(c1ccc(Cl)cc1)C1(O)CCNC(Cc2cccnc2)C1 (stereo not drawn) [Compound 467]
